Patent US20180271792A1, “ORAL DELIVERY OF PHYSIOLOGICALLY ACTIVE SUBSTANCES” (Rezolute, Inc., priority 2017, published 2018)

How the values were obtained:
blood glucose = assay: Blood glucose in rats after oral gavage or subcutaneous dosing; assay type: in vivo; details: subcutaneous 0.3 IU/kg
Experimental: The peptide and oil for formulations 44-47 were sonicated until they appeared cloudy but homogenous. Then the remaining ingredients were added to each sample. The samples were sonicated again until they appeared cloudy but homogenous. The samples were stored overnight at room temperature. Normal SD Rats (5 rats/group) were fasted overnight before being dosed by oral gavage at insulin equivalent dosage of 75 IU/kg. For comparison, a fifth group (sample 48) was dosed with Humulin R (recombinant human insulin) subcutaneously at 0.3 IU/kg. Blood was collected at predose (−30 min) and post dose (10 min, 30 min, 1 h, 1.5 h, 2 h, 3 h, 4 h, 6 h, 8 h) for glucose measurements by a glucometer. […]

[1] = cited from earlier work
[2] = rat, in vivo, po
Experimental: In forming samples 12-15, the insulin-PEG (or insulin-PEG inclusion complex) and the fish oil were sonicated for 30 minutes. The DPC was then added to the sonicated mixture and the mixture was briefly swirled or vortexed to mix. The resulting mixtures were kept at room temperature for 1 hour. The samples were administered via an oral gavage to rats at 150 IU/kg (for 5 kDa PEG) and 75 IU/kg (for 2 kDa PEG). At specified intervals, blood was collected from the jugular vein and analyzed for glucose values.

Experimental for Caco-2 monolayer: In order to estimate the membrane permeability of various formulations, a Caco-2 permeability study was performed. The compounds tested were insulin-PEG (5 kDa), insulin-PEG (5 kDa) inclusion complex, insulin-PEG (5 kDa) inclusion complex and DPC, insulin-PEG (2 kDa), and the insulin-PEG (2 kDa) inclusion complex. All compounds were dissolved in media at a concentration of 1 mg insulin/mL media and added to a Caco-2 monolayer.

## 48: Humulin R (recombinant human insulin) dosed subcutaneously at 0.3 IU/kg [Sample 48]
Blood glucose; Example 14
  time glucose back at baseline: 3 h

## GLP-1: a 31 amino acid peptide, an incretin, a hormone that can decrease blood glucose levels
[1]
  in vivo half-life: less than two

## Sample 17: 0.015 mg/kg insulin-PEG (2 kDa), administered subcutaneously
Blood glucose; Example 10
  time glucose back to baseline (~60 mg/dL): about 4 hours

## Sample 18: 0.011 mg/kg insulin, administered subcutaneously
Blood glucose; Example 10
  time glucose back to baseline (~60 mg/dL): about 3 hours

## Sample 19: 0.011 mg/kg insulin, administered subcutaneously
Blood glucose; Example 11
  time glucose back to baseline (~60 mg/dL): about 3 hours
Blood glucose; Example 11, all rats
  reduction in blood glucose to, within 30 minutes: 20 mg/dL

## insulin-PEG (2 kDa): human insulin conjugated with a 2 kDa PEG
Caco-2 monolayer
  % of the insulin-PEG permeating through the cell layer after 3 hours: 1%
[2]
  serum insulin-PEG / absorption: better absorbed than 5 kDa PEG
